Values joined by “and” are separate entries in the source; they are usually repeats but may differ in a detail not shown here. Equal values may be shown once. Read-outs that look alike come from different tables or passages of the source.

The subject of this assay is C. elegans.
[1] abbreviates: Table S2, C. elegans SS assay, 110 μM, averages of 4 data points.
Setting [2] is: Table S2, C. elegans SS assay, 110 μM, 24 h, averages of 4 data points.

Turning to `COC(=O)C1=CC[C@@]23CC[C@@H]([C@@](C)(/C=C/C=C(\C)C(=O)O[C@@H]4O[C@H](CO)[C@@H](O)[C@H](O)[C@H]4O)OC2=O)[C@@]3(OC(C)=O)CC1` [Pseudolaric acid B β-D-glucoside], the “Percentage of motility inhibition 0 h” value under setting [1] came out at 4%. Under setting [2], the “Percentage of motility inhibition 24 h” value was determined as 0%. Consider `C=C(C)[C@@H]1CC[C@]2(C(=O)O)CC[C@]3(C)[C@H](CC[C@@H]4[C@@]5(C)CC[C@H](O[C@@H]6OC[C@H](O)[C@H](O)[C@H]6O[C@@H]6O[C@@H](C)[C@H](O)[C@@H](O)[C@H]6O)[C@@](C)(CO)[C@@H]5CC[C@]43C)[C@@H]12` [Pulchinenoside A], for which the “Percentage of motility inhibition 0 h” value under setting [1] is given as 15%. In addition, the “Percentage of motility inhibition 24 h” value under setting [2] came to 7%.

For `C=C(C)[C@@H]1CC[C@]2(C(=O)O[C@@H]3O[C@H](CO[C@@H]4O[C@H](CO)[C@@H](O[C@@H]5O[C@@H](C)[C@H](O)[C@@H](O)[C@H]5O)[C@H](O)[C@H]4O)[C@@H](O)[C@H](O)[C@H]3O)CC[C@]3(C)[C@H](CC[C@@H]4[C@@]5(C)CC[C@H](O[C@@H]6OC[C@H](O)[C@H](O)[C@H]6O[C@@H]6O[C@@H](C)[C@H](O)[C@@H](O)[C@H]6O)[C@@](C)(CO)[C@@H]5CC[C@]43C)[C@@H]12` [Pulchinenoside C], under setting [1], the “Percentage of motility inhibition 0 h” value came to 4%. Under setting [2], the “Percentage of motility inhibition 24 h” value turned out to be 0%.

Consider `C[C@@H]1O[C@@H](O[C@H]2[C@H](O[C@H]3CC[C@@]4(C)[C@@H](CC[C@]5(C)[C@@H]4CC=C4[C@@H]6CC(C)(C)CC[C@]6(C(=O)O)CC[C@]45C)[C@]3(C)CO)OC[C@H](O[C@@H]3O[C@H](CO)[C@@H](O)[C@H](O)[C@H]3O)[C@@H]2O)[C@H](O)[C@H](O)[C@H]1O` [Pulsatilla saponin D], for which the “Percentage of motility inhibition 0 h” value under setting [1] is given as 0%. In addition, under setting [2], the “Percentage of motility inhibition 24 h” value was found to be 0%. In the case of `COc1ccc(C[C@H](N)C(=O)N[C@H]2[C@@H](O)[C@H](n3cnc4c(N(C)C)ncnc43)O[C@@H]2CO)cc1.Cl.Cl` [Puromycin (D ihydrochloride)], the “Percentage of motility inhibition 0 h” value under setting [1] turned out to be 13%. Moreover, under setting [2], the “Percentage of motility inhibition 24 h” value stood at 14%. As for `CN1CCCN=C1/C=C/c1cccs1.O=C(O)C(O)C(O)C(=O)O` [Pyrantel tartrate, reference compound], the “Inhibition (%) 110 μM (24 h)” value (C. elegans L4 motility, 110 μM, 24 h, mean ± SD of four experiments) amounted to 26 ± 1%. Besides, under setting [1], the “Percentage of motility inhibition 0 h” value is listed as 85%. The “Percentage of motility inhibition 24 h” value under setting [2] stood at 61%. For `O=c1c(O[C@@H]2O[C@H](CO[C@@H]3O[C@H](CO)[C@@H](O)[C@H](O)[C@H]3O)[C@@H](O)[C@H](O)[C@H]2O)c(-c2ccc(O)c(O)c2)oc2cc(O)cc(O)c12` [Quercetin 3‐gentiobioside], the “Percentage of motility inhibition 0 h” value under setting [1] was 42%. Also, under setting [2], the “Percentage of motility inhibition 24 h” value is given as 0%. For `O.O.O=c1c(O)c(-c2ccc(O)c(O)c2)oc2cc(O)cc(O)c12` [Quercetin (dihydrate)], the “Percentage of motility inhibition 0 h” value under setting [1] was determined as 0%. The “Percentage of motility inhibition 24 h” value under setting [2] is 3%. Regarding `C=C[C@H]1CN2CC[C@H]1C[C@@H]2[C@@H](O)c1ccnc2ccc(OC)cc12.Cl.O` [Quinidine hydrochloride monohydrate], under setting [1], the “Percentage of motility inhibition 0 h” value was 40%. Besides, the “Percentage of motility inhibition 24 h” value under setting [2] turned out to be 6%. `C=C[C@H]1CN2CC[C@H]1C[C@H]2[C@H](O)c1ccnc2ccc(OC)cc12.Cl.O.O` [Quinine (hydrochloride dihydrate)]: the “Percentage of motility inhibition 24 h” value under setting [2] was found to be 8%.

Consider `C=C[C@H]1C[N@@]2CC[C@H]1C[C@H]2[C@H](O)c1ccnc2ccc(OC)cc12` [Quinine], for which, under setting [2], the “Percentage of motility inhibition 24 h” value is 0% and 8% and 1%.

In the case of `C[C@@H]1O[C@@H](O[C@H]2[C@H](O[C@H]3[C@H](O[C@H]4CC[C@]5(C)[C@H]6CC=C7[C@@H]8CC(C)(C)CC[C@]8(C(=O)O)CC[C@@]7(C)[C@]6(C)CC[C@H]5C4(C)C)OC[C@H](O)[C@@H]3O)O[C@H](CO)[C@@H](O)[C@@H]2O)[C@H](O)[C@H](O)[C@H]1O` [Raddeanin A], the “Percentage of motility inhibition 0 h” value under setting [1] is 4%. Besides, the “Percentage of motility inhibition 24 h” value under setting [2] is 6%. `C[C@@H]1O[C@@H](O[C@H]2[C@H](O[C@H]3[C@H](O[C@H]4CC[C@]5(C)[C@H]6CC=C7[C@@H]8CC(C)(C)CC[C@]8(C(=O)O[C@@H]8O[C@H](CO[C@@H]9O[C@H](CO)[C@@H](O[C@@H]%10O[C@@H](C)[C@H](O)[C@@H](O)[C@H]%10O)[C@H](O)[C@H]9O)[C@@H](O)[C@H](O)[C@H]8O)CC[C@@]7(C)[C@]6(C)CC[C@H]5C4(C)C)OC[C@H](O)[C@@H]3O)O[C@H](CO)[C@@H](O)[C@@H]2O)[C@H](O)[C@H](O)[C@H]1O` [Raddeanoside R8]: the “Percentage of motility inhibition 0 h” value under setting [1] was determined as 3%. Also, under setting [2], the “Percentage of motility inhibition 24 h” value amounted to 0%.

On to `Cl.O=C(c1ccc(OCCN2CCCCC2)cc1)c1c(-c2ccc(O)cc2)sc2cc(O)ccc12` [Raloxifene (hydrochloride)], for which, under setting [1], the “Percentage of motility inhibition 0 h” value came out at 32%. Also, the “Percentage of motility inhibition 24 h” value under setting [2] came to 0%.

For `Cc1nnc(C(=O)NC(C)(C)c2nc(C(=O)NCc3ccc(F)cc3)c([O-])c(=O)n2C)o1.[K+]` [Raltegravir (potassium salt)], the “Percentage of motility inhibition 0 h” value under setting [1] is 3%. Further, the “Percentage of motility inhibition 24 h” value under setting [2] is on record as 4%.

Turning to `COC(=O)[C@H]1[C@H]2C[C@H]3c4[nH]c5ccccc5c4CCN3C[C@H]2CC[C@@H]1O.Cl` [Rauwolscine (hydrochloride)], the “Percentage of motility inhibition 0 h” value under setting [1] came out at 7%. Besides, the “Percentage of motility inhibition 24 h” value under setting [2] was 0%.

As to `C=C1C[C@@]23CC[C@H]4[C@@](C)(CCC[C@@]4(C)C(=O)O[C@@H]4O[C@H](CO)[C@@H](O)[C@H](O)[C@H]4O[C@@H]4O[C@H](CO)[C@@H](O)[C@H](O)[C@H]4O)[C@@H]2CC[C@]1(O[C@@H]1O[C@H](CO)[C@@H](O)[C@H](O[C@@H]2O[C@H](CO)[C@@H](O)[C@H](O)[C@H]2O)[C@H]1O[C@@H]1O[C@H](CO)[C@@H](O)[C@H](O)[C@H]1O)C3` [Rebaudioside D], under setting [1], the “Percentage of motility inhibition 0 h” value turned out to be 11%. Further, the “Percentage of motility inhibition 24 h” value under setting [2] amounted to 3%. The corresponding values for `C=C1C[C@@]23CC[C@H]4[C@@](C)(CCC[C@@]4(C)C(=O)O[C@@H]4O[C@H](CO)[C@@H](O)[C@H](O[C@@H]5O[C@H](CO)[C@@H](O)[C@H](O)[C@H]5O)[C@H]4O[C@@H]4O[C@H](CO)[C@@H](O)[C@H](O)[C@H]4O)[C@@H]2CC[C@]1(O[C@@H]1O[C@H](CO)[C@@H](O)[C@H](O[C@@H]2O[C@H](CO)[C@@H](O)[C@H](O)[C@H]2O)[C@H]1O[C@@H]1O[C@H](CO)[C@@H](O)[C@H](O)[C@H]1O)C3` [Rebaudioside M] are 7% and 0%. As for `C[C@]1(O[C@H]2O[C@H](CO)[C@H](O)[C@H](O)[C@H]2O)C[C@@H](O)[C@@H]2C=CO[C@@H](O[C@@H]3O[C@H](CO)[C@@H](O)[C@H](O)[C@H]3O)[C@@H]21` [Rehmannioside C], the “Percentage of motility inhibition 0 h” value under setting [1] worked out at 0%. Besides, the “Percentage of motility inhibition 24 h” value under setting [2] is 8%. The matching figures for `OCC1=C[C@@H](O)[C@]2(O[C@@H]3O[C@H](CO)[C@@H](O)[C@H](O)[C@H]3O[C@@H]3O[C@H](CO)[C@@H](O)[C@H](O)[C@H]3O)C=CO[C@@H](O[C@@H]3O[C@H](CO)[C@@H](O)[C@H](O)[C@H]3O)[C@H]12` [Rehmannioside D]: 11% and 35%. As for `CC1(C)[C@H]2O[C@H]2[C@H]2[C@](C)(O)[C@@H]3CC[C@@H]4[C@@H](O)[C@@]3(C[C@@H](O)[C@@]21O)C[C@@]4(C)O` [Rhodojaponin III], under setting [1], the “Percentage of motility inhibition 0 h” value amounted to 5%. Also, the “Percentage of motility inhibition 24 h” value under setting [2] turned out to be 2%. As to `CC(=O)O[C@@H]1C[C@]23C[C@@](C)(O)[C@H](CC[C@H]2[C@@](C)(O)[C@@H]2[C@@H]4O[C@@H]4C(C)(C)[C@@]12O)[C@H]3O` [Rhodojaponin II], the “Percentage of motility inhibition 0 h” value under setting [1] was determined as 4%. Further, the “Percentage of motility inhibition 24 h” value under setting [2] is listed as 8%. As for `C=CCCN1C[C@@H]2C[C@H](C1)c1cccc(=O)n1C2` [Rhombifoline], under setting [1], the “Percentage of motility inhibition 0 h” value is on record as 0%. Further, the “Percentage of motility inhibition 24 h” value under setting [2] worked out at 0%. For `NC[C@H]1O[C@H](O[C@H]2[C@H](O[C@@H]3O[C@H](CO)[C@@H](O)[C@H]3O)[C@@H](O)[C@H](N)C[C@@H]2N)[C@H](N)[C@@H](O)[C@@H]1O.O=S(=O)(O)O` [Ribostamycin (sulfate)], under setting [1], the “Percentage of motility inhibition 0 h” value stood at 33%. The “Percentage of motility inhibition 24 h” value under setting [2] was determined as 13%. Regarding `CC(N)C12CC3CC(CC(C3)C1)C2.Cl` (stereo not drawn) [Rimantadine (hydrochloride)], under setting [1], the “Percentage of motility inhibition 0 h” value came to 45%. In addition, the “Percentage of motility inhibition 24 h” value under setting [2] is reported as 25%.

Consider `C=C(C)[C@@H]1CC[C@]2(C)[C@H](CC=C3[C@@H]4[C@@H](C)[C@H](C)CC[C@]4(C)CC[C@]32C)[C@@]1(C)CCC(=O)O` [Roburic acid], for which the “Percentage of motility inhibition 0 h” value under setting [1] was 11%. Further, the “Percentage of motility inhibition 24 h” value under setting [2] was found to be 15%. As to `C[C@@H]1CC[C@]2(C(=O)O[C@@H]3O[C@H](CO)[C@@H](O)[C@H](O)[C@H]3O)CC[C@]3(C)C(=CC[C@@H]4[C@@]5(C)C[C@@H](O)[C@H](O)C(C)(C)[C@@H]5CC[C@]43C)[C@@H]2[C@]1(C)O` [Rosamultin], the “Percentage of motility inhibition 0 h” value under setting [1] came out at 21%. Besides, the “Percentage of motility inhibition 24 h” value under setting [2] worked out at 1%. As to `COc1cc2c(cc1OC)[C@@H]1Cc3ccc(OC)c(OC)c3CN1CC2` [Rotun dine], the “Percentage of motility inhibition 0 h” value (110 μM) is 0%. For the same compound, the “Percentage of motility inhibition 24 h” value (24 h, 110 µM) is given as 4%. For `COc1cc2c(cc1OC)[C@@H]1Cc3ccc(OC)c(OC)c3CN1CC2` [Rotundine], under setting [2], the “Percentage of motility inhibition 24 h” value is on record as 12%. Turning to `C=C(C(=O)O)[C@H]1CC[C@H](C)[C@@H]2CC(=O)C(C)=C2C1` [Rupestonic acid], the “Percentage of motility inhibition 0 h” value under setting [1] is on record as 0%. Moreover, the “Percentage of motility inhibition 24 h” value under setting [2] came out at 8%. With `C[C@@H]1O[C@@H](OC[C@H]2O[C@@H](Oc3c(-c4ccc(O)c(O)c4)oc4cc(O)cc(O)c4c3=O)[C@H](O)[C@@H](O)[C@@H]2O)[C@H](O)[C@H](O)[C@H]1O` [Ruti n], the “Percentage of motility inhibition 0 h” value under setting [1] amounted to 33%. In addition, under setting [2], the “Percentage of motility inhibition 24 h” value is recorded as 10%.

These data come from paper PMC11855827, “High-Throughput Screening of Five Compound Libraries for Anthelmintic Activity and Toxicity Leads to the Discovery of Two Flavonoid Compounds” (International Journal of Molecular Sciences, 2025).
